Data taken from PubChem BioAssay (NCI).
Values joined by “and” are separate entries in the source; they are usually repeats but may differ in a detail not shown here. Identical values can stand only once.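 These data come from cells grown in 96-well plates and exposed to compound for 48 hours at five concentrations. GI50 is the concentration that inhibits growth by half. Definition used: TGI = concentration required for complete inhibition of growth.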

What was measured:
Assay in all cases: NCI tumour cell line growth inhibition, 48 h
A498 renal = test system: A498 renal
COLO 205 colon = test system: COLO 205 colon
DMS 273 small cell lung = test system: DMS 273 small cell lung
HOP-62 NSCLC = test system: HOP-62 NSCLC
LOX IMVI melanoma = test system: LOX IMVI melanoma
LXFL 529 NSCLC = test system: LXFL 529 NSCLC
NCI-H226 lung = test system: NCI-H226 lung
RPMI-8226 leukemia = test system: RPMI-8226 leukemia
SK-OV-3 ovarian = test system: SK-OV-3 ovarian
MDA-MB-435 = test system: MDA-MB-435

Row | SMILES | GI50 (A498 renal) | TGI (A498 renal) | GI50 (COLO 205 colon) | TGI (COLO 205 colon) | GI50 (DMS 273 small cell lung) | GI50 (HOP-62 NSCLC) | GI50 (LOX IMVI melanoma) | TGI (LOX IMVI melanoma) | TGI (LXFL 529 NSCLC) | GI50 (NCI-H226 lung) | TGI (NCI-H226 lung) | TGI (RPMI-8226 leukemia) | GI50 (SK-OV-3 ovarian) | TGI (DMS 273 small cell lung) | TGI (HOP-62 NSCLC) | TGI (SK-OV-3 ovarian) | TGI (MDA-MB-435) | GI50 (MDA-MB-435) | GI50 (RPMI-8226 leukemia)
1 | CC1[C@@]2(CCC(C)(C)O2)O[C@@H]2C=C3C4CCC5Cc6nc7c(nc6C[C@@]5(C)C4C[C@H](O)[C@@]3(C)[C@]12O)CC1CCC2C3=C[C@H]4O[C@@]5(O[C@@](C)(CO)C[C@@H]5O)C(C)[C@@]4(O)[C@]3(C)[C@@H](O)CC2[C@]1(C)C7 (stereo not given in full) | 0.00106 µM | 0.14 µM and 0.0426 µM | 0.0141 µM | 0.472 µM and 0.0525 µM | < 0.000365 µM | 0.000389 µM | 0.0106 µM | 0.695 µM and 0.366 µM | 0.0824 µM | 0.0107 µM | 0.411 µM and 0.806 µM | 0.032 µM | 0.00178 µM |  |  |  |  |  | 
2 | O=C(N/C(=C\c1ccc([N+](=O)[O-])cc1)c1nc2ccccc2s1)c1ccccc1 |  | > 100 µM |  | > 100 µM |  |  |  | 46.5 µM | 42.9 µM |  |  | 44.1 µM |  | > 100 µM | > 100 µM | > 100 µM |  |  | 
3 | O=P(CN1CCOCC1)(c1ccccc1)c1ccccc1 |  | > 100 µM |  | > 100 µM |  |  |  | > 100 µM | > 100 µM |  |  | > 100 µM |  | > 100 µM | > 100 µM | > 100 µM |  |  | 
4 | CCCC1C[C@H]2CCCCN2[C@H]2CCCN12 (stereo not given in full) |  | > 100 µM |  | > 83.4 µM |  |  |  | > 55 µM | > 100 µM |  | > 100 µM | > 63.9 µM |  | > 100 µM | > 100 µM | > 100 µM |  |  | 
5 | O=C1CCC(c2ccccc2)=NN1c1nc2ccccc2s1 |  | > 100 µM |  | 18.1 µM |  |  |  | > 100 µM | > 100 µM |  | > 100 µM | > 87.9 µM |  | > 100 µM | > 100 µM | 79.6 µM | 69.7 µM |  | 
6 | COc1ccc(/C=C/C(=O)c2c(-c3ccccc3)nn(C)c(=O)c2N2CC2C)cc1 (stereo not given) |  | 80.7 µM |  | 89.2 µM |  |  |  | 34 µM | 93.2 µM |  | > 100 µM |  |  | 68.5 µM | > 100 µM | 71.3 µM |  |  | 
7 | FC(F)(F)c1ccccc1C1SCc2nc3ccccc3n21 (stereo not given) |  | 94.4 µM |  | > 100 µM |  |  |  |  | > 100 µM |  | > 100 µM | > 100 µM |  | > 100 µM |  | > 100 µM |  |  | 
8 | COC(=O)C(=O)C(C(=O)C(=O)Nc1ccc([N+](=O)[O-])cc1)c1nc2ccccc2[nH]c1=O (stereo not given) |  | > 100 µM |  | > 100 µM |  |  |  | > 100 µM | > 100 µM |  | > 100 µM | > 100 µM |  | > 100 µM | > 100 µM | > 100 µM |  |  | 
9 | O=C(/C=C/c1ccccc1)c1ccc(Cl)cc1Cl |  | 50.6 µM |  | 37.2 µM |  |  |  |  | 31.1 µM |  | 89.9 µM | 28.4 µM |  | 34 µM | > 100 µM | 85.3 µM |  |  | 
10 | COC(=O)CC1(O)C(=O)OCc2c1cc1n(c2=O)Cc2c-1nc1ccccc1c2OC (stereo not given) |  | 11.5 µM |  | > 100 µM |  |  |  | > 81.6 µM | > 100 µM |  | 0.688 µM | 23.2 µM |  | 3.35 µM | 0.358 µM | 17.4 µM |  |  | 
11 | CC1NOC(=O)C1N=Nc1cccc(Cl)c1 (stereo not given) |  | 52.5 µM |  | 55.7 µM |  |  |  | > 100 µM | > 100 µM |  | > 100 µM |  |  | > 100 µM | > 100 µM | 96.1 µM |  |  | 
12 | O=C1/C(=C/c2ccc(Cl)cc2)CCC1CNc1ccc(Cl)cc1 (stereo not given) |  | 54.8 µM |  | 15.8 µM |  |  |  | 15.1 µM | 10.5 µM |  | 98 µM | 6.68 µM |  | > 39.9 µM | 56.1 µM | > 31.4 µM | 37.6 µM |  | 
13 | CN(C)CCCN1c2ccccc2Sc2ccc(C(F)(F)F)cc21 | 1.05 µM |  | 1.38 µM |  |  |  | 1.57 µM | 2.98 µM and 28.9 µM and 29.7 µM | > 100 µM | 1.56 µM | 3.17 µM | 6.06 µM and 35.7 µM and 45.4 µM | 1.53 µM | 29.4 µM |  |  |  | 1.6 µM | 2.03 µM
14 | C/C=C/C=C/c1cc2cc3c(c(O)c2c(=O)[nH]1)C1(CC3)C(O)=c2c(=O)c3c(=O)cc(OC)c(=O)c=3c(=O)c2=C1O (stereo not given) |  |  |  | 1.23 µM and 6.92 µM |  | 0.327 µM and 1.15 µM | 1.27 µM | 9.5 µM | 4.56 µM | 0.23 µM and 0.895 µM | 3.71 µM and 8.42 µM | 0.678 µM and 2.2 µM |  | 7.82 µM | 4.49 µM and 8.28 µM | 16 µM and 8.75 µM | 10.8 µM |  | 
15 | CC(=O)CCC1(c2ccccc2)OC(=O)C(C#N)=C1c1ccccc1 (stereo not given) |  | > 100 µM |  | > 100 µM |  |  |  | > 100 µM | > 100 µM |  |  | > 100 µM |  | > 100 µM | > 100 µM | > 100 µM |  |  | 
16 | Cc1cc(Cl)ccc1N=C1NC(=O)C(CC(=O)Nc2cccc(Cl)c2)S1 (stereo not given) |  | 92.4 µM |  | > 100 µM |  |  |  | > 100 µM | > 100 µM |  | > 100 µM |  |  | > 100 µM | > 100 µM | > 100 µM |  |  | 
17 | Cc1c(Cl)ccc2c1NC(=O)C2(O)CC(=O)c1ccc(Cl)cc1 (stereo not given) |  | > 64.1 µM |  | > 64.9 µM |  |  |  | > 46.3 µM | > 53.3 µM |  | > 100 µM | > 84.3 µM |  | > 100 µM | > 100 µM | > 100 µM |  |  | 
18 | N#C/C(=C\c1ccc(O)cc1)C(N)=O |  | > 100 µM |  | > 100 µM |  |  |  | > 100 µM | > 100 µM |  | > 100 µM | > 100 µM |  | > 100 µM | > 100 µM | > 100 µM |  |  | 
